The values that follow are results of earlier work, collected in patent publication US20020004584A1, “HIV immune adjuvant therapy” (priority 2000, published 2002).

The conditions of data set [1]: in vivo.
The conditions of data set [2]: in vivo. This is another data set of the same source.
A further data set has as its system HIV-1. As to conditions: preclinical studies.

The structures appear in SMILES notation.

With `CC(C)(C)NC(=O)[C@@H]1C[C@@H]2CCCC[C@@H]2CN1C[C@@H](O)[C@H](Cc1ccccc1)NC(=O)[C@H](CC(N)=O)NC(=O)c1ccc2ccccc2n1` [saquinavir], in data set [1], the bioavailability result is “poor bioavailability”. As for `CC(C)c1nc(CN(C)C(=O)N[C@H](C(=O)N[C@@H](Cc2ccccc2)C[C@H](O)[C@H](Cc2ccccc2)NC(=O)OCc2cncs2)C(C)C)cs1` [Ritonavir, ritonavir], in data set [2], the adverse effects result is given as “troublesome adverse effects”. For `NC(=O)NO` [Hydroxyurea], in the data set with HIV-1, the “effect on the activity of didanosine” value was “synergistic effect”.
